In patent publication US4438029A, “Synthetic peptides” (Research Corporation, priority 1979, dated 1984):
Ends that are not written are not given here.

tested on: guinea pig ileum strips; assay: Contraction of guinea pig ileum strips in Tyrode's solution; assay type: cell-based; conditions: Table I; per 10 ml of solution; full contraction; guinea pig ileum strips with Tyrode's solution
Protocol: ^b Amount of peptide per 10 ml of solution to contract fully guinea
pig ileum strips with Tyrode's solution.
^b Amount of peptide per 10 ml of Tyrode's solution to fully contract
a guinea pig ileum strip.

Row | Substance | Activity (amount of peptide per 10 ml of solution to contract fully guinea pig ileum strips)
1 | ASHLGLAR [No. 5, L-Alanyl-L-seryl-L-histidyl-L-leucyl-glycyl-L-leucyl-L-alanyl-L-arginine] | 5 to 8 nmol
2 | Ac-ASHLGLAR [No. 6, CH3 CO--Ala-Ser-His-Leu-Gly-Leu-Ala-Arg] | 8 to 12 nmol

same assay, conditions: Table II; per 10 ml of Tyrode's solution; full contraction; guinea pig ileum strip

Row | Substance | Ileum Activity (amount of peptide per 10 ml of Tyrode's solution to fully contract a guinea pig ileum strip)
3 | Ac-AAALGLAR [CH3 CO--Ala-Ala-Ala-Leu-Gly-Leu-Ala-Arg] | 7 to 13 nmol
4 | Ac-ALGLAR [CH3 CO--Ala-Leu-Gly-Leu-Ala-Arg] | 19 to 38 nmol
5 | Ac-HLGLAR [CH3 CO--His-Leu-Gly-Leu-Ala-Arg] | 8 to 17 nmol
6 | Ac-LGLAR [CH3 CO--Leu-Gly-Leu-Ala-Arg] | 36 to 45 nmol
